Measured values reported in paper PMC8753592, “Long-acting capsid inhibitor protects macaques from repeat SHIV challenges” (Nature, 2021).
Several values for one entry are separate records, joined by “and”; a condition that tells them apart may be missing. Identical values can stand only once. Like-named read-outs stand apart in the source and are kept apart here.

Experiments:
in vitro = details: rhesus
Procedure: After a 24-h equilibration period at 37 °C, samples were quenched with 4 volumes of 90% (vol/vol) acetonitrile and 10% (vol/vol) methanol containing internal standard. Then, they were quantified using the AB Sciex API 4000 LC–MS/MS system (GenTech Scientific) with electrospray ionization in positive mode and multiple-reaction monitoring and were analysed using Analyst 1.6.1 software. The fold change value in 100% rhesus plasma was then calculated using the plasma/CCM ratio after correcting for the sample dilution factor and the percentage of free fraction in the matrix.

[1] = Metabolic stability of [3H]GS-CA1 in primary rhesus hepatocytes; type: in vitro ADME
Procedure: Propranolol (1 μM final), a compound known to be efficiently metabolized by hepatocytes by oxidation and conjugation, was used as a positive control. A cell-free control was incubated in parallel as a negative control. Aliquots (100 μl) were removed after 0 h, 1 h, 3 h and 6 h and were then mixed with 200 μl quenching solution, placed on a shaker for 10 min and centrifuged at 3,000g for 60 min. The supernatant was transferred to a new plate, diluted with 100 μl water and placed on a shaker for 10 min. […] PerkinElmer Ultima-Flo was used as the scintillation cocktail, which was mixed with the HPLC effluent at a ratio of 1:1. Sample (100 μl) was injected using a Leap Technologies CTC PAL autosampler. Separation was achieved on a Phenomenex Synergi Fusion-RP 80-Å pore size, 4-μm particle size, 150 × 4.6-mm column maintained at 32 °C. Mobile phase A consisted of 95% water, 5% acetonitrile and 0.1% trifluoroacetic acid (TFA). Mobile phase B consisted of 95% acetonitrile, 5% water and 0.1% TFA. […] The column was allowed to re-equilibrate for 12 min between injections. Quantification was based on the radiochromatographic peak area using Dionex (Thermo Scientific) Chromeleon 6.8 software.

[2] = Plasma GS-CA1 pharmacokinetics in the repeat SHIV challenge study; type: in vivo, rhesus macaques of Indian origin
Procedure: For the challenge study, 24 outbred rhesus macaques of Indian origin were assigned to the three study groups with even sex and weight distributions. All animals were housed at Alpha Genesis (Yemassee, SC), and all procedures were conducted in compliance with all relevant local, state and federal regulations and were approved by the Alpha Genesis IACUC. […] The injection sites were monitored daily by veterinary staff for 3 days. Beginning in week 1, animals in all three groups were challenged by the intrarectal route with 1 ml of RPMI containing the specified dilution of a 3.62 × 10^3 TCID50 SHIV-SF162P3 stock. At each respective time point, the challenges were performed on the same day, using the same virus stock and inoculation method across the three groups. Whole blood was collected and processed into plasma and PBMCs as necessary to assess routine haematology, clinical chemistry, viral load and serology as well as for bioanalysis of drug levels. The animals were considered to be protected if they remained SHIV negative by plasma PCR assay and seronegative by enzyme immunoassay throughout the 15-week challenge phase and the 9-week follow-up.
Rhesus plasma samples were stored frozen at −80 °C.

HIV-1 isolates = details: ref Yant et al, Nat.Med, 2019;[4]; read-out: EC50, human PBMCs, HIV-1 isolates; cited from earlier work
[3] = target: CA precursor (Gag polyprotein); details: ref Yant et al, Nat.Med, 2019;[4]; read-out: Binding Affinity (KD), CA precursor (Gag polyprotein); cited from earlier work
CA monomer = details: ref Yant et al, Nat.Med, 2019;[4]; read-out: Binding Affinity (KD), CA monomer; cited from earlier work
CA pentamer = details: ref Yant et al, Nat.Med, 2019;[4]; read-out: Binding Affinity (KD), CA pentamer; cited from earlier work
[4] = both sexes, Indian origin, rhesus monkey, in vivo, sc, 150 mg/kg, 150 mg/kg single s.c., n=8, mean ± SD
[5] = both sexes, Indian origin, rhesus monkey, in vivo, sc, 300 mg/kg, 300 mg/kg single s.c., n=8, mean ± SD
[6] = both sexes, Indian origin, rhesus monkey, in vivo, sc, 150 mg/kg single s.c., n=8, mean ± SD
[7] = both sexes, Indian origin, rhesus monkey, in vivo, sc, 300 mg/kg single s.c., n=8, mean ± SD

In the case of `CC(C)(C#Cc1ccc(-c2ccc(Cl)c3c(NS(=O)(=O)C4CC4)nn(CC(F)F)c23)c([C@H](Cc2cc(F)cc(F)c2)NC(=O)Cn2nc(C(F)F)c3c2C(F)(F)[C@@H]2C[C@H]32)n1)S(C)(=O)=O` [GS-CA1], the recovery at 24 h, 2 μM (in vitro) is reported as 60%, the hepatic extraction [1] is reported as 2.9% and the “predicted rate of hepatic clearance” value ([1]; 3H-labelled GS-CA1) is reported as 1.2 mL/min/kg. For the same compound, the “time above the rhesus paEC95” value ([2]; 150 mg/kg single s.c.) was 8–15 weeks, the “time six times above the rhesus paEC95” value ([2]; 150 mg/kg single s.c.) was 3–7 weeks and the Cmax ([2]; 150 mg/kg single s.c., n=8, mean ± SD) was 3020 ± 1070 nM. For the same compound, the “Plasma GS-CA1” value ([2]; 150 mg/kg single s.c., Week 1, individual animals) was 899.55 nM, the “Plasma GS-CA1” value ([2]; 150 mg/kg single s.c., Week 2, individual animals) was 1188.65 nM and the “Plasma GS-CA1” value ([2]; 150 mg/kg single s.c., Week 3, individual animals) was 497.91 nM. For the same compound, the “Plasma GS-CA1” value ([2]; 150 mg/kg single s.c., Week 4, individual animals) was 153.01 nM, the “Plasma GS-CA1” value ([2]; 150 mg/kg single s.c., Week 5, individual animals) was 181.45 nM and the “Plasma GS-CA1” value ([2]; 150 mg/kg single s.c., Week 6, individual animals) was 238.73 nM. The “Plasma GS-CA1” value ([2]; 150 mg/kg single s.c., Week 7, individual animals) was 104 nM, the “Plasma GS-CA1” value ([2]; 150 mg/kg single s.c., Week 8, individual animals) was 126.07 nM and the “Plasma GS-CA1” value ([2]; 150 mg/kg single s.c., Week 9, individual animals) was 74.21 nM and 60.58 nM. The “Plasma GS-CA1” value ([2]; 150 mg/kg single s.c., Week 10, individual animals) was 50.06 nM and 64.16 nM, the “Plasma GS-CA1” value ([2]; 150 mg/kg single s.c., Week 11, individual animals) was 28.74 nM and 29.18 nM and the “Plasma GS-CA1” value ([2]; 150 mg/kg single s.c., Week 12, individual animals) was 46.73 nM and 64.14 nM. The “Plasma GS-CA1” value ([2]; 150 mg/kg single s.c., Week 13, individual animals) was 44.36 nM, the “Plasma GS-CA1” value ([2]; 150 mg/kg single s.c., Week 14, individual animals) was 34.07 nM and the “Plasma GS-CA1” value ([2]; 150 mg/kg single s.c., Week 15, individual animals) was 17.38 nM. The “Plasma GS-CA1” value ([2]; 150 mg/kg single s.c., Week 16, individual animals) was 12.74 nM, the “Plasma GS-CA1” value ([2]; 150 mg/kg single s.c., Week 17, individual animals) was 16.54 nM and the “Plasma GS-CA1” value ([2]; 150 mg/kg single s.c., Week 18, individual animals) was 11.37 nM. The “Plasma GS-CA1” value ([2]; 150 mg/kg single s.c., Week 19, individual animals) was 19.32 nM, the “Plasma GS-CA1” value ([2]; 150 mg/kg single s.c., Week 20, individual animals) was 17.47 nM and the “Plasma GS-CA1” value ([2]; 150 mg/kg single s.c., Week 21, individual animals) was 4.49 nM. For the same compound, the “Plasma GS-CA1” value ([2]; 150 mg/kg single s.c., Week 22, individual animals) was 3.38 nM, the “Plasma GS-CA1” value ([2]; 150 mg/kg single s.c., Week 23, individual animals) was 2.14 nM and the “Plasma GS-CA1” value ([2]; 150 mg/kg single s.c., Week 24, individual animals) was 4.67 nM. For the same compound, the “time above the rhesus paEC95” value ([2]; 300 mg/kg single s.c.) was 14–16 weeks, the “time six times above the rhesus paEC95” value ([2]; 300 mg/kg single s.c.) was 5–8 weeks and the Cmax ([2]; 300 mg/kg single s.c., n=8, mean ± SD) was 5530 ± 1470 nM. For the same compound, the concentration at 12 week ([2]; both sexes, Indian origin (outbred), rhesus monkey, in vivo, 300 mg/kg, Plasma GS-CA1, GS-CA1 300mg/kg, Week 12, individual animals) was 83.4 nM, the concentration at 15 week ([2]; both sexes, Indian origin (outbred), rhesus monkey, in vivo, 300 mg/kg, Plasma GS-CA1, GS-CA1 300mg/kg, Week 15, individual animals) was 45.4 nM and the concentration at 12 weeks ([2]; both sexes, Indian origin, outbred, rhesus monkey, in vivo, 300 mg/kg, Plasma GS-CA1, 300 mg/kg single s.c., Week 12, individual animals) was 83.4 nM. For the same compound, the concentration at 15 weeks ([2]; both sexes, Indian origin, outbred, rhesus monkey, in vivo, 300 mg/kg, Plasma GS-CA1, 300 mg/kg single s.c., Week 15, individual animals) was 45.4 nM, the Cmax [2, 4] was 3000 nM and the Tmax [2, 4] was ~1 days. For the same compound, the Cmax [2, 5] was 5500 nM, the Tmax [2, 5] was ~1.75 days and the AUC(0-inf) [2, 6] was 960 ± 435 µM·h. For the same compound, the AUC(0-t) [2, 6] was 959 ± 435 µM·h, the half-life ([2]; both sexes, Indian origin, rhesus monkey, in vivo, sc, 150 mg/kg single s.c., n=8, mean ± SD, read-out: t1/2 (converted)) was 13.2 ± 5.5 days and the AUC(0-inf) [2, 7] was 2040 ± 722 µM·h. For the same compound, the AUC(0-t) [2, 7] was 2040 ± 722 µM·h, the half-life ([2]; both sexes, Indian origin, rhesus monkey, in vivo, sc, 300 mg/kg single s.c., n=8, mean ± SD, read-out: t1/2 (converted)) was 12 ± 1.88 days and the half-life ([2]; both sexes, Indian origin, rhesus monkey, in vivo, range over the 150 and 300 mg/kg groups, read-out: mean half-life) was 12 to 13.2 days. For the same compound, the EC50 (HIV-1 isolates) was 0.13 nM, the Kd [3] was 2.4 nM and the Kd (CA monomer) was 3.9 nM. For the same compound, the Kd (CA pentamer) was 0.27 nM.
